Data published in paper PMC6325233, “A Novel Actin Binding Drug with In Vivo Efficacy” (Antimicrobial Agents and Chemotherapy, 2018).
Like-named read-outs stand apart in the source and are kept apart here.

Columns and labels:
Assay type in all cases: cell-based
[1] = test system: Saccharomyces cerevisiae BY4741; assay: MIC susceptibility testing
Procedure: Occidiofungin was purified from a liquid culture of Burkholderia contaminans MS14 as previously described ([21]). MIC susceptibility testing was performed according to the CLSI M27-A3 and M38-A2 standards for the susceptibility testing of yeasts and filamentous fungi, respectively. S. cerevisiae deletion mutants were obtained from the commercially available BY4741 deletion library (Thermo Scientific).
The addition of an alkyne reactive group to the primary amine on occidiofungin was performed initially at the Texas A&M Natural Products LINCHPIN Laboratory at Texas A&M University and subsequently at the CPRIT Synthesis and Drug-Lead Discovery Laboratory at Baylor University (see Fig. S1 in the supplemental material). A solution of triethylamine and acetonitrile was prepared by dissolving 10 µl of triethylamine in 11.7 ml of acetonitrile. A stock solution of acetonitrile and the reagents was prepared by adding 2,5-dioxopyrrolidin-1-yl hex-5-ynoate (1.40 mg, 6.69 µmole, 8.2 equivalent) to 1.08 ml of the triethylamine and acetonitrile solution prepared above. Occidiofungin (1 mg, 0.82 µmole, 1 equiv.) was added to the stock solution of acetonitrile and reagents (400 µl) containing triethylamine (0.34 µl, 2.46 µmole, 3 equiv.) and 2,5-dioxopyrrolidin-1-yl hex-5-ynoate ([…], 2.46 µmole, 3 eq). […]

[2] = test system: S. cerevisiae (BY4743, diploid); assay: DNA (nuclear) segregation assay, DAPI; details: for percentage of cells in category, column 2 / percentage of cells in category, column 4 / percentage of cells in category, column 3 / percentage of cells in category, column 1: 0.5X MIC, 30 °C, two experiments; for percentage of cells in category, column 2: untreated 3.9 ± 1.2; for percentage of cells in category, column 4: untreated 1.4 ± 0.5; for percentage of cells in category, column 3: untreated 13.7 ± 2.5; for percentage of cells in category, column 1: untreated 80.4 ± 2.6
Procedure: (§1) The hyphal induction assay was performed as previously reported with minor modifications ([58]). Candida albicans strain ATCC 66027 was grown in yeast extract-peptone-dextrose (YPD) medium at 30°C for 48 h to reach saturation with an OD600 of 17 to 19. Cells were diluted into fresh Spider medium (1% nutrient broth, 1% mannitol, 0.2% K2HPO4) to obtain an OD600 of 0.05 (∼0.5 × 10^6 to 1 × 10^6 cells/ml) and incubated at 37°C with shaking to induce hyphal formation. Immediately prior to the 37°C incubation, occidiofungin (1 µg/ml; 0.5× MIC) or an equal volume of DMSO was added to the cultures. Aliquots were removed at 0-, 1-, 2-, 4-, and 6-h time points and fixed in 3.7% formaldehyde for later analysis of cell morphology by light microscopy. More than 200 cells were examined for each time point, and cells were scored as having either a yeast or filamentous form, with cells showing any outgrowth considered filamentous. DNA segregation assays were performed using a mid-log culture of S. cerevisiae (BY4743, diploid) and C. albicans (ATCC 66027). The cultures were diluted in fresh YPD medium to obtain OD600s of 0.095 (∼1 × 10^6 to 1.5 × 10^6 cells/ml) and 0.05 (0.5 × 10^6 to 0.8 × 10^6 cells/ml), respectively. A blank vehicle control (DMSO) or occidiofungin (1 µg/ml; 0.5× MIC) was added, and the cultures were placed at 30°C with shaking. Samples were removed at 0.5, 1, and 2 h, and the cells fixed by adding formaldehyde (3.7%). The cells were washed in phosphate-buffered saline (PBS) and permeabilized by adding an equivalent volume of PBS containing 0.2% Triton X-100 for 30 min at room temperature. The cells were washed thrice in PBS, added to concanavalin A-treated glass slides, and overlaid with Vectashield plus DAPI (4′,6-diamidino-2-phenylindole). Images were viewed using a Nikon 50i fluorescence microscope with a 100× oil immersion objective and DAPI filter. Cells were scored on the basis of bud morphology and DNA location. One-way analyses of variance (ANOVAs) with post hoc Tukey’s honestly significant difference (HSD) testing were used to determine statistically significant differences in the distributions between treated and untreated cells. In addition, FM-464 uptake assays were used to observe endocytosis. Three 1-ml aliquots of S. pombe (OD600 of 0.6 to 0.8) were treated with 1 μl DMSO, 0.5 μg/ml (0.5× MIC), or 1 μg/ml (1× MIC) of native occidiofungin for 30 min at 30°C. The cells were washed thrice with PBS and resuspended in YPD medium containing […] FM-464 (Thermo Fisher Scientific). The cells were incubated for 60 min at 30°C, followed by two washes in PBS before visualizing on an Olympus FV1000 confocal microscope with a 40×/0.9 dry objective. Lastly, actin polymerization and depolymerization assays were performed using the Actin polymerization biochem kit (catalog number BK003; Cytoskeleton, Inc.) according to the manufacturer’s instructions.

C. albicans (ATCC 66027) = assay: DNA (nuclear) segregation assay, DAPI; details: for percentage of cells in category, column 2: untreated 10.3 ± 3.8; for percentage of cells in category, column 4: untreated 1.0 ± 0.4; for percentage of cells in category, column 3: untreated 26.6 ± 5.6
Procedure: as §1

[3] = subinhibitory concentration, within 30 min
[4] = 0.5X MIC, 0.5 h, 30 °C, two experiments
[5] = 0.5X MIC, 1 h, 30 °C, two experiments, * p < 0.05

occidiofungin
MIC ([1]; CLSI M27-A3, alkyne-OF vs native comparison (S2 Table)): 0.125 µg/mL
MIC ([1]; parent strain of deletion mutants (S4 Table)): 0.25 µg/mL
percentage of cells in category (bud morphology and DNA localization), column 1 [2]: 66.9 ± 6.8%
percentage of cells in category, column 2 ([2]; 0.5 h, * p < 0.05): 0.2 ± 0.3%
percentage of cells in category, column 4 ([2]; 0.5 h, ** p < 0.01): 12.3 ± 0.6%
percentage of cells in category, column 3 ([2]; 0.5 h): 20.5 ± 6.5%
percentage of cells in category, column 2 ([2]; 1 h, * p < 0.05): 0.4 ± 0.1%
percentage of cells in category, column 3 ([2]; 1 h, * p < 0.05): 25.4 ± 4.7%
percentage of cells in category, column 4 ([2]; 1 h, ** p < 0.01): 15.1 ± 2.9%
percentage of cells in category, column 1 ([2]; 1 h, ** p < 0.01): 59.1 ± 7.7%
percentage of cells in category, column 2 ([2]; 2 h, * p < 0.05): 0.6 ± 0.8%
percentage of cells in category, column 1 ([2]; 2 h, * p < 0.05): 63.5 ± 2.2%
percentage of cells in category, column 4 ([2]; 2 h, ** p < 0.01): 13.3 ± 0.7%
percentage of cells in category, column 3 ([2]; 2 h): 22.7 ± 2.3%
binucleated cells [2, 3]: more binucleated cells
percentage of cells in category, column 1 (C. albicans (ATCC 66027)): 58.1 ± 6.6%
percentage of cells in category, column 2 (C. albicans (ATCC 66027); 0.5X MIC, 0.5 h, 30 °C, two experiments, * p < 0.05): 1 ± 0.7%
percentage of cells in category, column 4 (C. albicans (ATCC 66027); [4]): 5.6 ± 0.4%
percentage of cells in category, column 3 (C. albicans (ATCC 66027); [4]): 35.3 ± 6.8%
percentage of cells in category, column 4 (C. albicans (ATCC 66027); [5]): 8.1 ± 2.8%
percentage of cells in category, column 2 (C. albicans (ATCC 66027); [5]): 0.9 ± 0.1%
percentage of cells in category, column 3 (C. albicans (ATCC 66027); 0.5X MIC, 1 h, 30 °C, two experiments): 28.1 ± 1.3%
percentage of cells in category, column 1 (C. albicans (ATCC 66027); 0.5X MIC, 1 h, 30 °C, two experiments, untreated 62.1 ± 8.8): 62.9 ± 4.2%
percentage of cells in category, column 2 (C. albicans (ATCC 66027); 0.5X MIC, 2 h, 30 °C, two experiments, * p < 0.05): 0.4 ± 0.6%
percentage of cells in category, column 4 (C. albicans (ATCC 66027); 0.5X MIC, 2 h, 30 °C, two experiments, ** p < 0.01): 11.4 ± 3.8%
percentage of cells in category, column 3 (C. albicans (ATCC 66027); 0.5X MIC, 2 h, 30 °C, two experiments): 26.3 ±12.1%
percentage of cells in category, column 1 (C. albicans (ATCC 66027); 0.5X MIC, 2 h, 30 °C, two experiments, untreated 62.1 ± 8.8): 61.9 ± 7.7%
binucleated cells (C. albicans (ATCC 66027); [3]): more binucleated cells
